These results are taken from patent US4956357A (priority 1984, dated 1990).

For one data set, the system named is human androgen receptor. An excerpt: It is also believed that an androgen-action,rather than an estrogen action, acts to prevent breast enlargement.
For data set [1], the system named is gynecomastia. The following applies: alcoholic solution applied to the skin; cited from earlier work.
For data set [2] the following is noted: cited from earlier work.
The next data set concerns gonadotropin. The settings on record: in vivo; cited from earlier work.
In data set [3] the test system is gynecomastia. The settings on record: treatment of gynecomastia; cited from earlier work.

`C[C@]12CCC(=O)C[C@@H]1CC[C@@H]1[C@@H]2CC[C@]2(C)[C@@H](O)CC[C@@H]12` [DHT, dihydrotestosterone]: the “binding to human androgen receptor” value in the data set on human androgen receptor is listed as “high affinity”. Besides, in the data set with gynecomastia [1], the “plasma DHT levels (systemic absorption)” value is reported as “elevations in its plasma levels”. In addition, the oral stability entry in data set [2] (oral) is on record as “destroyed before reaching the circulatory system”. Further, the half-life entry in data set [2] (parenteral) is recorded as “very short half-life”.

With `CCC(=O)O[C@H]1CC[C@H]2[C@@H]3CC[C@H]4CC(=O)CC[C@]4(C)[C@H]3CC[C@]12C` [Dihydrotestosterone propionate], in the data set with gonadotropin, the duration of action result is listed as “one-to three” and the gonadotropin suppression entry is “not effective in gonadotropin suppression”.

For `C[C@]12CC[C@H]3[C@@H](CCC4=CC(=O)CC[C@@]43C)[C@@H]1CC[C@@H]2O` [testosterone], the breast size result with gynecomastia [3] is recorded as “increased breast size”.
